Measurements taken from patent US8129527B2, “Analogs of dehydrophenylahistins and their therapeutic use” (Nereus Pharmacuticals, Inc., priority 2006, dated 2012).
Like-named read-outs stand apart in the source and are kept apart here.

Tested on: HT-29 cells
Assay: Additional cytotoxicity assays, resazurin (Table 3.1)
Format: cell-based, human
Details: for EC50: Homo sapiens
Procedure: 10× concentrated serial dilutions of the two compounds were prepared in appropriate culture medium for final concentrations ranging from 2.0×10^−5 M to 2.0×10^−10 M. Ten μl volumes of the 10× serial dilutions were added to the test wells in triplicate and the plates returned to the incubator for 48 hours.
Following 48 hours of drug exposure 10 μl of 0.2 mg/ml resazurin (obtained from Sigma-Aldrich Chemical Co.) in Mg^2+, Ca^2+ free PBS was added to each well and the plates were returned to the incubator for 3-4 hours. […] Resazurin dye without cells was used to determine the background, which was subtracted from the data for all experimental wells. The data were analyzed using Prism software (GraphPad Software).
Additional cytotoxicity assays were performed as described above under this example, using Resazurin fluorescence as an indicator of cell viability.

[1] = HT-29, Table 3.1, read-out: EC50 (M) Mean

COc1cc(/C=c2\[nH]c(=O)/c(=C/c3nc[nH]c3C(C)(C)C)[nH]c2=O)cc(OC)c1 [Compound 2367, tBu-delta-3,5-diOMe]
EC50 [1]: 4.54e-08 M
% cytotox Mean (Table 3.1): 87%

COc1ccc(/C=c2\[nH]c(=O)/c(=C/c3nc[nH]c3C(C)(C)C)[nH]c2=O)cc1O [Compound 2408, tBu-delta-PLH-3-OH-4-OMe]
EC50 [1]: 7.48e-06 M
% cytotox Mean (Table 3.1): 66%

Cc1c(F)cccc1/C=c1\[nH]c(=O)/c(=C/c2nc[nH]c2C(C)(C)C)[nH]c1=O [Compound 2435, tBu-delta-PLH-2-Me-3-F]
EC50 [1]: 3.34e-08 M
% cytotox Mean (Table 3.1): 86%

Cc1ccc(C)c(/C=c2\[nH]c(=O)/c(=C/c3nc[nH]c3C(C)(C)C)[nH]c2=O)c1 [Compound 2442, tBu-delta-PLH-2,5-diMe]
EC50 [1]: 8.82e-08 M
% cytotox Mean (Table 3.1): 87%

CC(C)(C)c1[nH]cnc1/C=c1\[nH]c(=O)/c(=C/c2ccccc2N)[nH]c1=O [Compound 2457, tBu-delta-PLH-2-NH2]
EC50 [1]: 4.32e-07 M
% cytotox Mean (Table 3.1): 86%

COc1ccc(O)c(/C=c2\[nH]c(=O)/c(=C/c3nc[nH]c3C(C)(C)C)[nH]c2=O)c1 [Compound 2405, tBu-delta-PLH-2-OH-5-OMe]
EC50 [1]: > 2e-05 M
% cytotox Mean (Table 3.1): 25%

CC(C)(C)c1[nH]cnc1/C=c1\[nH]c(=O)/c(=C/c2cccc(N)c2)[nH]c1=O [Compound 2458, tBu-delta-PLH-m-NH2]
EC50 (HT-29, read-out: EC50 (M) Mean): 3.1e-08 M
% cytotox Mean (Table 3.1): 87%

CC(C)(C)c1[nH]cnc1/C=c1\[nH]c(=O)/c(=C/c2cccc(OC(F)(F)F)c2)[nH]c1=O [Compound 2430, tBu-delta-PLH-m-OCF3]
EC50 [1]: 1.43e-08 M
% cytotox Mean (Table 3.1): 87%

CCc1ccc(/C=c2\[nH]c(=O)/c(=C/c3nc[nH]c3C(C)(C)C)[nH]c2=O)o1 [Compound 2426, tBu-delta-PLH-5-Et-2-furyl]
EC50 [1]: 2.42e-07 M
% cytotox Mean (Table 3.1): 86%

COc1cccc(/C=c2\[nH]c(=O)/c(=C/c3nc[nH]c3C(C)(C)C)[nH]c2=O)c1O [Compound 2373, tBu-delta-PLH-2-OH-3-OMe (o-vanillin)]
EC50 [1]: 5.36e-06 M
% cytotox Mean (Table 3.1): 79%

CC(C)(C)c1[nH]cnc1/C=c1\[nH]c(=O)/c(=C/c2cc(Br)cs2)[nH]c1=O [Compound 2423, tBu-delta-PLH-4-Br-2-thionyl]
EC50 [1]: 1.71e-07 M
% cytotox Mean (Table 3.1): 86%

COc1cccc(/C=c2\[nH]c(=O)/c(=C/c3nc[nH]c3C(C)(C)C)[nH]c2=O)c1[N+](=O)[O-] [Compound 2441, tBu-delta-PLH-2-NO2-3-OMe]
EC50 [1]: 6.63e-07 M
% cytotox Mean (Table 3.1): 83%

COc1ccc(F)c(/C=c2\[nH]c(=O)/c(=C/c3nc[nH]c3C(C)(C)C)[nH]c2=O)c1 [Compound 2431, tBu-delta-PLH-2-F5-OMe]
EC50 [1]: 2.03e-08 M
% cytotox Mean (Table 3.1): 88%

C=CC(C)(C)c1[nH]cnc1/C=c1\[nH]c(=O)/c(=C\c2ccc(OC)cc2)[nH]c1=O [Compound 2357]
EC50 [1]: 8.25e-06 M
% cytotox Mean (Table 3.1): 63%

CC(C)(C)c1[nH]cnc1/C=c1\[nH]c(=O)/c(=C/c2ccc3c(c2)OCO3)[nH]c1=O [Compound 2372, tBu-delta-PLH-3,4-methylene-dioxy]
EC50 [1]: 8.73e-08 M
% cytotox Mean (Table 3.1): 84%

C=CC(C)(C)c1[nH]cnc1/C=C1\N=C(OC)C(Cc2ccccc2)N=C1OC (racemic) [Compound 2354, D,L-bislactim-PLH]
EC50 [1]: > 2e-05 M
% cytotox Mean (Table 3.1): 4%

CCc1ccc(/C=c2\[nH]c(=O)/c(=C/c3nc[nH]c3C(C)(C)C)[nH]c2=O)s1 [Compound 2424, tBu-delta-PLH-5-Et-2-thionyl]
EC50 [1]: 1.32e-07 M
% cytotox Mean (Table 3.1): 87%

COc1cc(/C=c2\[nH]c(=O)/c(=C/c3nc[nH]c3C(C)(C)C)[nH]c2=O)ccc1F [Compound 2432, tBu-delta-PLH-4-F-3-OMe]
EC50 [1]: 4.93e-07 M
% cytotox Mean (Table 3.1): 85%

CC(C)(C)c1[nH]cnc1/C=c1\[nH]c(=O)/c(=C/c2ccc(Br)o2)[nH]c1=O [Compound 2425, tBu-delta-PLH-5-Br-2-furyl]
EC50 [1]: 3.05e-08 M
% cytotox Mean (Table 3.1): 87%

Cc1[nH]cnc1/C=c1\[nH]c(=O)/c(=C/c2nc[nH]c2C(C)(C)C)[nH]c1=O [Compound 2387, tBu-delta-PLH-5-Me-4-im]
EC50 [1]: 2.35e-06 M
% cytotox Mean (Table 3.1): 84%

COc1cccc2cc3c(=O)[nH]/c(=C\c4nc[nH]c4C(C)(C)C)c(=O)n3c12 [Compound 2374, tBu-delta-PLH-cyclized-3-MeO]
EC50 [1]: 6.92e-06 M
% cytotox Mean (Table 3.1): 58%

CC(C)(C)c1[nH]cnc1/C=c1\[nH]c(=O)/c(=C/c2cc(Cl)ccc2O)[nH]c1=O [Compound 2410, tBu-delta-PLH-2-OH-5-Cl]
EC50 [1]: > 2e-05 M
% cytotox Mean (Table 3.1): 37%

CC(C)(C)c1[nH]cnc1/C=c1\[nH]c(=O)/c(=C/c2cccc3c2OCO3)[nH]c1=O [Compound 2381, tBu-delta-PLH-2,3-methylendioxy]
EC50 [1]: 5.2e-07 M
% cytotox Mean (Table 3.1): 82%

Cc1ccc(F)c(/C=c2\[nH]c(=O)/c(=C/c3nc[nH]c3C(C)(C)C)[nH]c2=O)c1 [Compound 2436, tBu-delta-PLH-2-F-5-Me]
EC50 [1]: 2.5e-08 M
% cytotox Mean (Table 3.1): 86%

CC(C)(C)c1[nH]cnc1/C=c1\[nH]c(=O)/c(=C/c2cc(Br)ccc2O)[nH]c1=O [Compound 2407, tBu-delta-PLH-2-OH-5-Br]
EC50 [1]: > 2e-05 M
% cytotox Mean (Table 3.1): 13%

COc1cc(/C=c2\[nH]c(=O)/c(=C/c3nc[nH]c3C(C)(C)C)[nH]c2=O)cc(OC)c1OC [Compound 2362, tBu-ΔPLH-3,4,5-triOMe]
EC50 (HT-29, read-out: EC50 (M) Mean): 8.19e-06 M
% cytotox Mean (Table 3.1): 78%

Cc1cccc(/C=c2\[nH]c(=O)/c(=C/c3nc[nH]c3C(C)(C)C)[nH]c2=O)n1 [Compound 2384, tBu-delta-PLH-3-Me-2-pyridyl]
EC50 [1]: > 2e-05 M
% cytotox Mean (Table 3.1): 37%

CC(C)(C)c1[nH]cnc1/C=c1\[nH]c(=O)/c(=C/c2ccccc2)[nH]c1=O [Compound 2358, t-butyl-delta-PLH]
EC50 (HT-29, read-out: EC50 (M) Mean): 1.49e-08 M
% cytotox Mean (Table 3.1): 86%

Cn1cccc1/C=c1\[nH]c(=O)/c(=C/c2nc[nH]c2C(C)(C)C)[nH]c1=O [Compound 2414, tBu-delta-PLH-N-Me-2-pyrrole]
EC50 [1]: 1.17e-07 M
% cytotox Mean (Table 3.1): 88%

CSc1ccccc1/C=c1\[nH]c(=O)/c(=C/c2nc[nH]c2C(C)(C)C)[nH]c1=O [Compound 2429, tBu-delta-PLH-2-(Methylthio)]
EC50 [1]: 2.86e-08 M
% cytotox Mean (Table 3.1): 87%

Cc1ccc(/C=c2\[nH]c(=O)/c(=C/c3nc[nH]c3C(C)(C)C)[nH]c2=O)s1 [Compound 2378, tBu-delta-PLH-5-Me-2-thienyl]
EC50 [1]: 8.52e-08 M
% cytotox Mean (Table 3.1): 85%

CC(C)(C)c1[nH]cnc1/C=c1\[nH]c(=O)/c(=C/c2ccc(Cl)s2)[nH]c1=O [Compound 2412, tBu-delta-PLH-5-Cl-2-thionyl]
EC50 (HT-29, read-out: EC50 (M) Mean): 1.65e-07 M
% cytotox Mean (Table 3.1): 85%

C=CC(C)(C)c1[nH]cnc1/C=c1\[nH]c(=O)/c(=C/c2ccccc2)[nH]c1=O [Compound 2352, Dehydrophenylahistin]
EC50 [1]: 4.26e-08 M
% cytotox Mean (Table 3.1): 86%

CC(C)(C)c1[nH]cnc1/C=c1\[nH]c(=O)/c(=C/c2ccc(C#N)cc2)[nH]c1=O [Compound 2394, tBu-delta-PLH-p-CN]
EC50 [1]: > 2e-05 M
% cytotox Mean (Table 3.1): 14%

COc1ccc(/C=c2\[nH]c(=O)/c(=C/c3nc[nH]c3C(C)(C)C)[nH]c2=O)c(O)c1 [Compound 2409, tBu-delta-PLH-2-OH-4-OMe]
EC50 [1]: > 2e-05 M
% cytotox Mean (Table 3.1): 8%
